# Key:
# [1] = target: GST-tagged WT KRAS (amino acids 1-188) binding to His-tagged SOS1 (Homo sapiens (Human), UniProt P01116); assay: KRAS WT:SOS1 GDP TR-FRET assay; details: GDP 10 μM; WT KRAS 37.5 nM; SOS1 18 nM
# Description: (§1) KRAS: SOS1 GDP TR-FRET Assay
# (§2) This assay was used to identify compounds which competitively interact with the binding of KRAS protein to SOS1 in the presence of GDP. GST-tagged WT KRAS (amino acids 1-188), GST-tagged KRAS (amino acids 1-188) G12D and His- tagged SOS1 protein (amino acids 564-1049) was expressed in E. coli and purified. All protein and reaction solutions were prepared in assay buffer containing DPBS pH7.5, 0.1% BSA, and 0.05% Tween 20. Purified GST-tagged WT KRAS or KRAS G12D protein (37.5 nM final assay concentration) and GDP (Sigma, 10 μM final assay concentration) mixture, a serially diluted compound (top final concentration is 50 uM or 10 uM, 3-fold serially diluted, 10 points) and His-tagged SOS1 protein (18 nM final assay concentration) were added into the assay plates (384 well microplate, black, Corning) sequentially. Plates are incubated at 24° C. for 1 hr. Following the incubation, Mab Anti-6His-Tb cryptate (Cisbio) and Mab Anti GST-D2 (Cisbio) were added and further incubated at 24° C. for another 1 hr. The TR-FRET signals (ex337nm, em665nm/620nm) were read on BMG PHERAstar FSX instrument. The inhibition percentage of KRAS protein binding with SOS1 in presence of increasing concentrations of compounds was calculated based on the ratio of fluorescence at 665 nm to that at 620 nm. The IC50 value of each compound was calculated from fitting the data to the four-parameter logistic model by Dotmatics.
# [2] = target: GST-tagged KRAS (amino acids 1-188) G12D binding to His-tagged SOS1 (Homo sapiens (Human), UniProt P01116, G12D); assay: KRAS G12D:SOS1 GDP TR-FRET assay; details: GDP 10 μM; KRAS G12D 37.5 nM; SOS1 18 nM
# Chain of GST-tagged KRAS (amino acids 1-188) G12D binding to His-tagged SOS1 (P01116 other isoform, or with tags, fused parts or gaps G12D): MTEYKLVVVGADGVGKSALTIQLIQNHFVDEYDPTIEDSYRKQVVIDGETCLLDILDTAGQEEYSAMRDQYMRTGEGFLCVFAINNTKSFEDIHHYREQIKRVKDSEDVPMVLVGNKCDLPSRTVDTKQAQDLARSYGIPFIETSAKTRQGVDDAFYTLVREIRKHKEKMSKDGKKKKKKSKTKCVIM
# Description: as §1, §2
# [3] = tested on: pERK1/2(THR202/TYR204) level in AsPC-1 cells; assay: pERK assay (HTRF) in AsPC-1 cells; type: cell-based; details: Homo sapiens, ASPC1, 2 h compound treatment
# Description: AsPC-1 cell line was used in this study. Cells were maintained in RPMI-1640 supplemented with 10% fetal bovine serum (Thermo Fisher), 50 units/mL penicillin and streptomycin (Thermo Fisher) and kept at 37° C. in a humidified atmosphere of 5% CO2 in air. Cells were reinstated from frozen stocks that were laid down within 30 passages from the original cells purchased. 30000 cells per well were seeded into a 96-well plate and incubated overnight. Cells were treated with a 10-point dilution series. The final compound concentration is from 0 to 10 μM. After 2 h compound treatment, cells were lysed, and the pERK1/2(THR202/TYR204) level in the cell lysates was detected by HTRF kit (Cisbio). In brief, a total of 16 μl of cell lysate from each well of a 96-well plate was transferred to a 384-well white assay plate. Lysate from each well was incubated with 2 μL of Eu3+- cryptate (donor) labeled anti-phospho-ERK1/2 and 2 μL of D2 (acceptor) labeled anti-phospho-ERK1/2 antibodies (Cisbio) overnight in dark at room temperature. When donor and acceptor are in close proximity, excitation of the donor with laser triggers a Fluorescence Resonance Energy Transfer (FRET) towards the acceptor, which in turn fluoresces at 655 nm wavelength. FRET signals were measured using a PHERAstar FSX reader (BMG Labtech). IC50 determination was performed by fitting the curve of percent inhibition versus the log of the inhibitor concentration using Dotmatics.
# [4] = target: KRAS G12D HiBiT in HEK293 KRAS-G12D NanoLuc cell pool (Homo sapiens (Human), UniProt P01116, G12D); assay: KRAS G12D NanoLuc assay; type: cell-based; details: 24 h compound treatment
# Chain of KRAS G12D HiBiT in HEK293 KRAS-G12D NanoLuc cell pool (P01116 other isoform, or with tags, fused parts or gaps G12D): as above
# Description: HEK293 KRAS-G12D NanoLuc cell pool was used in this study. The cells were stable expressing KRAS G12D HiBiT and LgBiT. Cells were maintained in DMEM supplemented with 10% fetal bovine serum (Thermo Fisher), 50 units/mL penicillin and streptomycin (Thermo Fisher) and kept at 37° C. in a humidified atmosphere of 5% CO2 in air. Cells were reinstated from frozen stocks that were laid down within 30 passages from the cell pool was constructed. 20000 cells per well were seeded a 96-well White with Clear Flat bottom plate for 4 h. Cells were treated with a 10-point dilution series. The final compound concentration is from 0 to 10 μM. After 24 h compound treatment, added 20 μL of CellTiter-Fluor reagent (Promega) to plates, shook for 2 min, incubated at least 30 min in 37° C. Added 25 μL of NanoGlo Live cell reagent (Promega) to the same plate. shook by mini-shaker for 5 min. Measure Luminescence and Fluorescence (380-400nmEx/505nmEm) signals immediately using a PHERAstar FSX reader (BMG Labtech). DC50 determination was performed by fitting the curve of percent inhibition versus the log of the inhibitor concentration using Excel and GraphPad Prism 8.
# Chain of GST-tagged WT KRAS (amino acids 1-188) binding to His-tagged SOS1 (P01116 other isoform, or with tags, fused parts or gaps): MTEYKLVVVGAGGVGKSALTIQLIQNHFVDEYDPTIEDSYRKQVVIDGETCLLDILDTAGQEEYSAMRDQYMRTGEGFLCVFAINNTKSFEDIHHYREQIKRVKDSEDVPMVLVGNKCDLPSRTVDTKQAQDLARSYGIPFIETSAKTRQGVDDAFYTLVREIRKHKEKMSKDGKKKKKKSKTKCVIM
SMILES,IC50 [1],IC50 [2],IC50 [3],DC50 [4],Dmax [4]
"Cc1cccc2cccc(N3CCc4c(nc(OC[C@@H]5CCCN5C)nc4N4CC5CCC4CN5)C3)c12 (stereo partly drawn) [Example 6, 2-(7-(8-methylnaphthalen-1-yl)-2-(((S)-1-methylpyrrolidin-2-yl)methoxy)-5,6,7,8-tetrahydropyrido[3,4-d]pyrimidin-4-yl)-2,5-diazabicyclo[2.2.2]octane]",> 50 µM,0.713 µM,–,–,–
"Cc1cccc2cccc(N3CCc4c(nc(OC[C@@H]5CCCN5C)nc4N4CC5CC4CN5)C3)c12 (stereo partly drawn) [Example 4, 4-(2,5-diazabicyclo[2.2.1]heptan-2-yl)-7-(8-methylnaphthalen-1-yl)-2-(((S)-1-methylpyrrolidin-2-yl)methoxy)-5,6,7,8-tetrahydropyrido[3,4-d]pyrimidine]",> 50 µM,2.59 µM,–,–,–
CN1CCC[C@H]1COc1nc2c(c(N3CC4CCC(C3)N4)n1)CCN(c1cccc3ccc(F)c(Cl)c13)C2 [Example 11],3.62 µM,0.012 µM,4.64 µM,–,–
"Cc1cccc2cccc(N3CCc4c(nc(OC[C@@H]5CCCN5C)nc4N4C5CCC4C(N)C5)C3)c12 (stereo partly drawn) [Example 2, 7-(7-(8-methylnaphthalen-1-yl)-2-(((S)-1-methylpyrrolidin-2-yl)methoxy)-5,6,7,8-tetrahydropyrido[3,4-d]pyrimidin-4-yl)-7-azabicyclo[2.2.1]heptan-2-amine]",34.2 µM,4.5 µM,–,–,–
CN1CCC[C@H]1COc1nc2c(c(N3CC4CCC(C3)N4)n1)CCN(c1cccc3ccc(Cl)c(Cl)c13)C2 [Example 9],> 10 µM,0.063 µM,9.93 µM,–,–
"CN1CCC[C@H]1COc1nc2c(c(N3C4CCC3CNC4)n1)CCN(c1cccc3cccc(Cl)c13)C2 [Example 3, 4-(3,8-diazabicyclo[3.2.1]octan-8-yl)-7-(8-chloronaphthalen-1-yl)-2-(((S)-methylpyrrolidin-2-yl)methoxy)-5,6,7,8-tetrahydropyrido[3,4-d]pyrimidine]",> 50 µM,0.635 µM,–,–,–
"CN1CCC[C@H]1COc1nc2c(c(N3CC4CCC(C3)N4)n1)CCN(c1cccc3cccc(Cl)c13)C2 [Example 7, 4-(3,8-diazabicyclo[3.2.1]octan-3-yl)-7-(8-chloronaphthalen-1-yl)-2-(((S)-1-methylpyrrolidin-2-yl)methoxy)-5,6,7,8-tetrahydropyrido[3,4-d]pyrimidine]",17.2 µM,0.059 µM,6.75 µM,–,–
CN1CCC[C@H]1COc1nc2c(c(N3CC4CCC(C3)N4)n1)CCN(c1cc(N)cc(Cl)c1Cl)C2 [Example 13],> 10 µM,0.027 µM,4.1 µM,–,–
"CN1C[C@H](F)C[C@H]1COc1nc2c(c(N3CC4CCC(C3)N4)n1)CCN(c1cccc3cccc(Cl)c13)C2 [Example 15, 4-(3,8-diazabicyclo[3.2.1]octan-3-yl)-7-(8-chloronaphthalen-1-yl)-2-(((2S,4R)-4-fluoro-1-methylpyrrolidin-2-yl)methoxy)-5,6,7,8-tetrahydropyrido[3,4-d]pyrimidine]",> 10 µM,0.041 µM,4.03 µM,–,–
Cc1ncsc1-c1ccc([C@H](C)NC(=O)[C@@H]2C[C@@H](O)CN2C(=O)[C@@H](NC(=O)CCCCCCN2CCC[C@H]2COc2nc3c(c(N4CC5CCC(C4)N5)n2)CCN(c2cccc4cccc(Cl)c24)C3)C(C)(C)C)cc1 [Example 16],–,–,–,1 µM,73%
"Cc1cccc2cccc(N3CCc4c(nc(OC[C@@H]5CCCN5C)nc4N4CC5CC(C4)N5)C3)c12 [Example 8, 3-(7-(8-methylnaphthalen-1-yl)-2-(((S)-1-methylpyrrolidin-2-yl)methoxy)-5,6,7,8-tetrahydropyrido[3,4-d]pyrimidin-4-yl)-3,6-diazabicyclo[3.1.1]heptane]",> 10 µM,0.749 µM,–,–,–
"CN1CCC[C@H]1COc1nc2c(c(N3CC4CCC(C3)N4)n1)CCN(c1cc(N)cc(Cl)c1C(F)(F)F)C2 [Example 12, 3-(4-(3,8-diazabicyclo[3.2.1]octan-3-yl)-2-(((S)-1-methylpyrrolidin-2-yl)methoxy)-5,8-dihydropyrido[3,4-d]pyrimidin-7(6H)-yl)-5-chloro-4-(trifluoromethyl)aniline]",2.39 µM,0.0098 µM,1.95 µM,–,–
CN1CCC[C@H]1COc1nc2c(c(N3CC4CCC(C3)N4)n1)CCN(c1cc(O)cc3ccccc13)C2 [Example 10],6.21 µM,0.022 µM,–,–,–
"CO[C@@H]1C[C@@H](COc2nc3c(c(N4CC5CCC(C4)N5)n2)CCN(c2cccc4cccc(Cl)c24)C3)N(C)C1 [Example 14, 4-(3,8-diazabicyclo[3.2.1]octan-3-yl)-7-(8-chloronaphthalen-1-yl)-2-(((2S,4R)-4-methoxy-1-methylpyrrolidin-2-yl)methoxy)-5,6,7,8-tetrahydropyrido[3,4-d]pyrimidine]",> 10 µM,0.126 µM,> 10 µM,–,–
"Cc1cccc2cccc(N3CCc4c(nc(OC[C@@H]5CCCN5C)nc4N4CC5CCC(C4)N5)C3)c12 [Example 5, 4-(3,8-diazabicyclo[3.2.1]octan-3-yl)-7-(8-methylnaphthalen-1-yl)-2-(((S)-1-methylpyrrolidin-2-yl)methoxy)-5,6,7,8-tetrahydropyrido[3,4-d]pyrimidine]",> 50 µM,0.118 µM,> 10 µM,–,–
"Cc1cccc2cccc(N3CCc4c(nc(OC[C@@H]5CCCN5C)nc4N4CCNCC4)C3)c12 [Example 1, (S)-7-(8-methylnaphthalen-1-yl)-2-((1-methylpyrrolidin-2-yl)methoxy)-4-(piperazin-1-yl)-5,6,7,8-tetrahydropyrido[3,4-d]pyrimidine]",> 50 µM,22.7 µM,–,–,–

# Reference: US20240092803A1, “BRIDGED COMPOUNDS AS KRAS G12D INHIBITOR AND DEGRADER AND THE USE THEREOF” (BEIGENE SWITZERLAND GMBH, priority 2021, published 2024)
